Measured values from US20030091975A1, “Multiple determinants for metabolic phenotypes” (priority 2001, published 2003).
Marks after values point to notes of the source that are not given here.

Tests used:
Type in all cases: binding, rabbit
[1] = system: 1,7-DMU-Ab; assay: Competitive antigen ELISA, antibody specificity of 1,7-DMU-Ab; details: ideal antibody specificity result hypothesized; 0 = no inhibition or no higher than 40% at 5×10^−3 M
Description: (§1) BSA, antibodies, Tween™ 20 and horse radish peroxidase are added to buffers and water just prior to use. Urine samples are usually collected four hours after drinking a cup of coffee (instant or brewed with approximately 100 mg of caffeine per cup) and stored at −20° C. as 1-mL aliquots in 1.5-mL microtubes. For the ELISA, the urine samples are diluted with isotonic sodium phosphate buffer, pH 7.5 (310 mosM) to give concentrations of caffeine, 1.7-DMX and 1,7-DMU no higher than 3×10^−6 M in the microtiter plate wells. Wells of the ELISA plate are washed with a Nunc-Immuno wash 12 washer. Sixteen milliliters of a solution of 6.6 μg ml^−1 of isolated IgG antibodies is prepared in a 100 mM sodium carbonate buffer, pH 9.6, and 150 μL of this solution is pipetted in each well of a microtiter plate using a eight channel pipet (Brinkmann Transferpette™-8 50-200 μL) and 200 μL Flex tips from Brinkmann). After coating the wells with antibodies at 4° C. for 20 hours, the wells are washed 3 times with the isotonic sodium phosphate buffer containing 0.05% Tween™ 20 (IPBT) and properly drained by inverting the plate and absorbing the liquid on to a piece of paper towel. Thirty milliliters of a solution of a IPBT solution containing 1% BSA is prepared and 150 μL of this solution is pipetted in each well using a eight channel pipet (Brinkmann Transferpette ™-8 50-200 μL) and 200 μL yellow tips (Sarstedt yellow tips for P200 Gilson Pipetman). After 3 hours at room temperature, the wells are washed 3 times with IPBT solution and drained. Samples of 400 μL for determination of caffeine, 1,7-DMX and 1,7-DMU are prepared in 1.5-mL microtubes using Sarstedt yellow tips and a P200 Gilson Pipetman. Then, 200 μL of each sample are pipetted in duplicate in a Falcon 96-well microtest tissue culture plate according to the pattern shown in FIG. 22, using Sarstedt yellow tips and a P200 Gilson Pipetman. Using an eight channel pipet (Brinkmann Transferpette™-8 50-200 μL) and changing the tips of the eight channel pipet (200μL Flex tips from Brinkmann) at each row, 150 μL of samples are transferred in the corresponding wells of a 96-well ELISA microtiter plate coated with antibodies. After the addition of the samples, the microtiter plates are covered and left standing at room temperature for 2 h. While the plate is left standing the substrate buffer without the hydrogen peroxide and o-phenylenediamine hydrochloride is prepared (25 mM citric acid and 50 mM sodium phosphate dibasic buffer, pH 5.0). The microtiter plate is washed 3 times with the IPBT solution and 3 times with a 0.05% Tween™ 20 solution and drained. Then, 50 μL of hydrogen peroxide and 40 mg of o-phenylenediamine are added to the substrate buffer. One hundred fifty microliters (150 μL) of the substrate buffer solution is then added to each well using a eight channel pipet (Brinkmann Transferpette™-8 50-200 μL) and 200 μL Flex tips (Brinkmann). The microtiter plate is covered and shaken for 25-30 min at room temperature and the enzymatic reaction is stopped by adding 50 μL/well of a 2.5 N HCl solution using an eight channel pipet (Brinkmann Transferpette™-8 50-200 μL) and 200L Flex tips (Brinkmann).

[2] = system: 1,7-DMX-Ab; assay: Competitive antigen ELISA, antibody specificity of 1,7-DMX-Ab; details: ideal antibody specificity result hypothesized; 0 = no inhibition or no higher than 40% at 5×10^−3 M
Description: as §1

[3] = system: Caffeine-Ab; assay: Competitive antigen ELISA, antibody specificity of caffeine-Ab; details: ideal antibody specificity result hypothesized; 0 = no inhibition or no higher than 40% at 5×10^−3 M
Description: as §1

[4] = system: 1X-Ab; assay: Competitive antigen ELISA, cross-reactivity of 1X-Ab; details: for % Cross-Reaction 1X-Ab: 0 = absence of inhibition or inhibition no higher than 40% at the highest concentration tested (5×10^−3 M)
Description: (§2) Buffers and water without additives are filtered through millipore filters and kept for 1 week. BSA, antibodies, Tween™ 20 and horse radish peroxidase conjugates are added to these buffers and water just prior to use. Urine samples are usually collected 4 hours after drinking a cup of coffee (instant or brewed with approximately 100 mg of caffeine per cup) and stored at −80° C. The urine samples are diluted 10 times with sodium phosphate buffer (620 mosm, pH 7.50) and are subsequently diluted with water to give concentrations of AAMU and 1X no higher than 3×10^−6 M in the ELISA. All the pipettings are done with an eight-channel pipette, except those of the antibody and sample solutions. Starting with the last well, 100 μL of a carbonate buffer (100 mM, pH 9.6) containing 2.5 μg mL-1 antibodies are added to each well. After 90 min. at room temperature, the wells are washed three times with […] of TPB: isotonic sodium phosphate buffer (310 mosm, pH 7.50) containing 0.05% Tween™ 20.
(§3) After the initial wash, unoccupied sites are blocked by incubation for 90 min. at room temperature with 100 μL TBP containing 3% BSA. The wells are washed four times with 100 μL TPB. […] The microplate is gently shaken with an orbital shaker at room temperature for 3-4 hours. The wells are washed three times with 100 μL TPB containing 1% BSA and three times with water containing 0.05% Tween ™ 20. To the washed plate is added 150 μL of a substrate buffer composed of citric acid (25 mM) and sodium phosphate dibasic buffer (50 mM, pH 5.0) containing 0.06% hydrogen peroxide and 0.04% o-phenylenediamine hydrochloride.
(§4) Buffers and water without additives were filtered through millipore filters and kept for 1 week. BSA, antibodies, Tween ™ 20 and horse radish peroxidase conjugates were added to these buffers and water just prior to use. Urine samples were usually collected 4 hours after drinking a cup of coffee (instant or brewed with approximately 100 mg of caffeine per cup) and stored at 80° C. They were diluted 10 times with sodium phosphate buffer (620 mosm, pH 7.50) and were subsequently diluted with water to give concentrations of AAMU and 1X no higher than 3×10^−6 M in the ELISA. All the pipettings were done with an eight-channel pipette, except those of the antibody and sample solutions. Starting with the last well, 100 μL of a carbonate buffer (100 mM, pH 9.6) containing 2.5 μg mL^−1 antibodies was pipetted. After 90 min. at room temperature, the wells were washed three times with 100 μL of TPB: isotonic sodium phosphate buffer (310 mosm, pH 7.50) containing 0.05% Tween™ 20.
(§5) After the initial wash, unoccupied sites were blocked by incubation for 90 min. at room temperature with 100 μL TBP containing 3% BSA. The wells were washed four times with 100 μL TPB. […] The microplate was gently shaken with an orbital shaker at room temperature for 3-4 hours. The wells were washed three times with 100 μL with TPB containing 1% BSA and three times with water containing 0.05% Tween™ 20. To the washed plate was added 150 μL of a substrate buffer composed of citric acid (25 mM) and sodium phosphate dibasic buffer (50 mM, pH 5.0) containing 0.06% hydrogen peroxide and 0.04% o-phenylenediamine hydrochloride. After 20 min. at room temperature with shaking, the reaction was stopped with 50 μL of 2.5 N HCl.
(§6) The cross reactivities of AAMU-Ab and 1X-Ab were tested using a wide variety of caffeine metabolites and structural analogs (Table 5 below).

[5] = system: AAMU-Ab; assay: Competitive antigen ELISA, cross-reactivity of AAMU-Ab; details: for % Cross-Reaction AAMU-Ab: 0 = absence of inhibition or inhibition no higher than 40% at the highest concentration tested (5×10^−3 M)
Description: as §2, §3, §4, §5, §6

Compound: Cn1c(=O)[nH]c(=O)c2c1[nH]c(=O)n2C [3,7-Dimethyluric acid]
- % Cross-reaction 1,7-DMU-Ab [1]: 0%
- % Cross-reaction 1,7-DMX-Ab [2]: 0%
- % Cross-reaction Caffeine-Ab [3]: 0%

Compound: Cn1c(=O)[nH]c(=O)c2[nH]c(=O)[nH]c21 [3-Methyluric acid]
- % Cross-reaction 1,7-DMU-Ab [1]: 0%
- % Cross-reaction 1,7-DMX-Ab [2]: 0%
- % Cross-reaction Caffeine-Ab [3]: 0%

Compound: CC(=O)Nc1c(N)[nH]c(=O)[nH]c1=O [5-Acetamino-6-amino-uracil]
- % Cross-reaction 1,7-DMU-Ab [1]: 0%
- % Cross-Reaction 1X-Ab [4]: 0%
- % Cross-Reaction AAMU-Ab [5]: 0.6%
- % Cross-reaction 1,7-DMX-Ab [2]: 0%
- % Cross-reaction Caffeine-Ab [3]: 0%

Compound: Cn1c(=O)[nH]c(=O)c2[nH]cnc21 [3-Methyl Xanthine]
- % Cross-reaction 1,7-DMU-Ab [1]: 0%
- % Cross-Reaction 1X-Ab [4]: 0%
- % Cross-Reaction AAMU-Ab [5]: 0%
- % Cross-reaction 1,7-DMX-Ab [2]: 0%
- % Cross-reaction Caffeine-Ab [3]: 0%

Compound: Cn1c(=O)[nH]c2[nH]c(=O)[nH]c2c1=O [1-Methyluric acid]
- % Cross-reaction 1,7-DMU-Ab [1]: 0%
- % Cross-Reaction 1X-Ab [4]: 11%
- % Cross-Reaction AAMU-Ab [5]: 0%
- % Cross-reaction 1,7-DMX-Ab [2]: 0%
- % Cross-reaction Caffeine-Ab [3]: 0%

Compound: Cn1c(=O)c2c(ncn2C)n(C)c1=O [1,3,7-Trimethyl Xanthine (Caffeine), 1,3,7-Trimethyl Xanthine]
- % Cross-reaction 1,7-DMU-Ab [1]: 0%
- % Cross-Reaction 1X-Ab [4]: 0%
- % Cross-Reaction AAMU-Ab [5]: 0%
- % Cross-reaction 1,7-DMX-Ab [2]: 0^a %
- % Cross-reaction Caffeine-Ab [3]: 100%

Compound: O=c1[nH]cnc2nc[nH]c12 [Hypoxanthine]
- % Cross-reaction 1,7-DMU-Ab [1]: 0%
- % Cross-Reaction 1X-Ab [4]: 0%
- % Cross-Reaction AAMU-Ab [5]: 0%
- % Cross-reaction 1,7-DMX-Ab [2]: 0%
- % Cross-reaction Caffeine-Ab [3]: 0%

Compound: Cn1cnc2c1c(=O)[nH]c(=O)n2C [3,7-Dimethyl Xanthine (Theobromine), 3,7-Dimethyl Xanthine]
- % Cross-reaction 1,7-DMU-Ab [1]: 0%
- % Cross-Reaction 1X-Ab [4]: 0%
- % Cross-Reaction AAMU-Ab [5]: 0%
- % Cross-reaction 1,7-DMX-Ab [2]: 0%
- % Cross-reaction Caffeine-Ab [3]: 0%

Compound: Cn1c(=O)c2[nH]c(=O)[nH]c2n(C)c1=O [1,3-Dimethyluric acid]
- % Cross-reaction 1,7-DMU-Ab [1]: 0%
- % Cross-reaction 1,7-DMX-Ab [2]: 0%
- % Cross-reaction Caffeine-Ab [3]: 0%

Compound: O=c1cc[nH]c(=O)[nH]1 [Uracil]
- % Cross-reaction 1,7-DMU-Ab [1]: 0%
- % Cross-Reaction 1X-Ab [4]: 0%
- % Cross-Reaction AAMU-Ab [5]: 0%
- % Cross-reaction 1,7-DMX-Ab [2]: 0%
- % Cross-reaction Caffeine-Ab [3]: 0%

Compound: Cn1c(=O)[nH]c2[nH]c(=O)[nH]c(=O)c21 [7-Methyluric acid]
- % Cross-reaction 1,7-DMU-Ab [1]: 0%
- % Cross-reaction 1,7-DMX-Ab [2]: 0%
- % Cross-reaction Caffeine-Ab [3]: 0%

Compound: Cn1c(=O)c2c([nH]c(=O)n2C)n(C)c1=O [1,3,7-Trimethyluric acid]
- % Cross-reaction 1,7-DMU-Ab [1]: 0%
- % Cross-reaction 1,7-DMX-Ab [2]: 0%
- % Cross-reaction Caffeine-Ab [3]: 0%

Compound: CC(=O)Nc1c(N)n(C)c(=O)n(C)c1=O [5-Acetamino-6-amino-1,3-dimethyluracil]
- % Cross-reaction 1,7-DMU-Ab [1]: 0%
- % Cross-Reaction 1X-Ab [4]: 0%
- % Cross-Reaction AAMU-Ab [5]: 0%
- % Cross-reaction 1,7-DMX-Ab [2]: 0%
- % Cross-reaction Caffeine-Ab [3]: 0%

Compound: Nc1nc2nc[nH]c2c(=O)[nH]1 [Guanine]
- % Cross-reaction 1,7-DMU-Ab [1]: 0%
- % Cross-Reaction 1X-Ab [4]: 0%
- % Cross-Reaction AAMU-Ab [5]: 0%
- % Cross-reaction 1,7-DMX-Ab [2]: 0%
- % Cross-reaction Caffeine-Ab [3]: 0%

Compound: O=c1[nH]c(=O)c2[nH]c(=O)[nH]c2[nH]1 [Uric acid]
- % Cross-reaction 1,7-DMU-Ab [1]: 0%
- % Cross-Reaction 1X-Ab [4]: 0%
- % Cross-Reaction AAMU-Ab [5]: 0%
- % Cross-reaction 1,7-DMX-Ab [2]: 0%
- % Cross-reaction Caffeine-Ab [3]: 0%

Compound: Cn1c(=O)[nH]c2nc[nH]c2c1=O [1-Methyl Xanthine (1X), 1-Methyl Xanthine]
- % Cross-reaction 1,7-DMU-Ab [1]: 0%
- % Cross-Reaction 1X-Ab [4]: 100%
- IC50 ([4]; read-out: concentration required for 50% inhibition in the competitive antigen ELISA, 1X-Ab): 10 µM
- % Cross-Reaction AAMU-Ab [5]: 0%
- % Cross-reaction 1,7-DMX-Ab [2]: 0%
- % Cross-reaction Caffeine-Ab [3]: 0%

Compound: Cc1nc2[nH]c(=O)[nH]c(=O)c2[nH]1 [8-Methyl Xanthine]
- % Cross-reaction 1,7-DMU-Ab [1]: 0%
- % Cross-Reaction 1X-Ab [4]: 0%
- % Cross-Reaction AAMU-Ab [5]: 0%
- % Cross-reaction 1,7-DMX-Ab [2]: 0%
- % Cross-reaction Caffeine-Ab [3]: 0%

Compound: CC(=O)Nc1c(N)n(C)c(=O)[nH]c1=O [5-Acetamino-6-amino-1-methyluracil]
- % Cross-reaction 1,7-DMU-Ab [1]: 0%
- % Cross-Reaction 1X-Ab [4]: 0%
- % Cross-Reaction AAMU-Ab [5]: 100%
- IC50 ([5]; read-out: concentration required for 50% inhibition in the competitive antigen ELISA, AAMU-Ab): 1.5 µM
- % Cross-reaction 1,7-DMX-Ab [2]: 0%
- % Cross-reaction Caffeine-Ab [3]: 0%

Compound: O=c1[nH]c(=O)c2[nH]cnc2[nH]1 [Xanthine]
- % Cross-reaction 1,7-DMU-Ab [1]: 0%
- % Cross-Reaction 1X-Ab [4]: 0%
- % Cross-Reaction AAMU-Ab [5]: 0^a %
- % Cross-reaction 1,7-DMX-Ab [2]: 0%
- % Cross-reaction Caffeine-Ab [3]: 0%

Compound: Cn1c(=O)[nH]c2[nH]c(=O)n(C)c2c1=O [1,7-Dimethyluric acid]
- % Cross-reaction 1,7-DMU-Ab [1]: 100%
- % Cross-Reaction 1X-Ab [4]: 0%
- % Cross-Reaction AAMU-Ab [5]: 0%
- % Cross-reaction 1,7-DMX-Ab [2]: 0%
- % Cross-reaction Caffeine-Ab [3]: 0%

Compound: Cn1c(=O)[nH]c2ncn(C)c2c1=O [1,7-Dimethyl Xanthine (Paraxanthine), 1,7-Dimethyl Xanthine]
- % Cross-reaction 1,7-DMU-Ab [1]: 0%
- % Cross-Reaction 1X-Ab [4]: 0.5%
- % Cross-Reaction AAMU-Ab [5]: 0%
- % Cross-reaction 1,7-DMX-Ab [2]: 100%
- % Cross-reaction Caffeine-Ab [3]: 0%
